Measured values: patent US20210059977A1, “COMBINATION THERAPIES FOR THE TREATMENT OF AMYOTROPHIC LATERAL SCLEROSIS AND RELATED DISORDERS” (The General Hospital Corporation, priority 2018, published 2021)

Assays:
[1] = tested on: lumbar spinal cord motor neurons; experiment: Motor neuron quantification (H&E); type: in vivo, mice; details: TgSOD1-Cromolyn vs TgSOD1-Vehicle; p=0.0033
Protocol: Longitudinal sections (10 μm) of the lumbar spinal cord were cut from fresh frozen tissue. Hematoxylin and eosin (H&E) staining was performed on the tissue sections as previously described. Within the region containing the ventral horn, all motor neurons are counted for three individual sections per animal (each separated by […]) to cover the areas of highest motor neuron density within the ventral horn. All counting was performed by an individual blinded to the genotypes. Images were acquired using a Zeiss microscope 20× objective (0.8 NA) and processed with Metamorph image analysis software (Molecular Devices).
(§1) 149 male and female age- and litter-matched transgenic (Tg) SOD1^G93A and wild-type (Wt) SOD1^G93A mice were used with the following breakdown: Females (19 WtSOD1-Vehicle, 17 WtSOD1-Cromolyn, 19 TgSOD1-Vehicle, and 17 TgSOD1-Cromolyn) and Males (18 WtSOD1-Vehicle, 21 WtSOD1-Cromolyn, 21 TgSOD1-Vehicle, 17 TgSOD1-Cromolyn).

beta-amyloid peptides = beta-amyloid peptides (Homo sapiens, UniProt P05067); details: cited from earlier work
beta-amyloid peptides, sequence (P05067 672-713 limits assumed): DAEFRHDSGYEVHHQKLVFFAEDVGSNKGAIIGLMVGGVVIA

GPR35 [2] = experiment: GPR35 immunofluorescence, lumbar spinal cord; type: in vivo, mice; details: TgSOD1-Cromolyn vs TgSOD1-Vehicle
Protocol: Frozen mouse lumbar spinal cord was sectioned at […] and stained using previously described methods. Tissue sections were fixed with 4% paraformaldehyde and blocked in a mixture of phosphate-buffered saline (PBS), 5% BSA, and normal goat serum. Co-staining was done using antibodies specific for GPR35 (Novus Biologicals, Littleton, Colo.; NBP2-24640) and NeuN (Millipore Sigma, Temecula, Calif.; MAB377 overnight at 4° C. Following three washes with PBS, sections were incubated with Cy3-conjugated goat anti-mouse and FITC-conjugated goat anti-rabbit antibodies (Jackson ImmunoResearch, West Grove, Pa.). Ten 20× fields were imaged from each section and analyzed using open source software from the National Institutes of Health (ImageJ).
as §1

[3] = Body weight of TgSOD1 mice; type: in vivo; details: TgSOD1-Cromolyn vs TgSOD1-Vehicle
Protocol: Beginning at P50, weight and neurological score (using the ALS TDI criteria) (Hatzipetros, T., et al. (2015). “A Quick Phenotypic Neurological Scoring System for Evaluating Disease Progression in the SOD1-G93A Mouse Model of ALS.” J Vis Exp(104); Leitner M., et. al. (2009). “Working with ALS mice: Guidelines for preclinical testing & colony management.” The Jackson Laboratory) were recorded for each mouse every 5 days until death or euthanasia. ALS TDI criteria are as follows: • Score of 0: Full extension of hind legs away from lateral midline when mouse is suspended by its tail, and mouse can hold this for two seconds, suspended two to three times. • Score of 1: Collapse or partial collapse of leg extension towards lateral midline (weakness) or trembling of hind legs during tail suspension. • Score of 2: Toes curl under at least twice during walking of 12 inches, or any part of foot is dragging along cage bottom/table. • Score of 3: Rigid paralysis or minimal joint movement, foot not being used for generating forward motion. • Score of 4: Mouse cannot right itself within 15 seconds after being placed on either side. *Mice were euthanized upon obtaining a score of 4. […]

GPR35 [4] = experiment: GPR35 western blots, spinal cord; type: in vivo, mice; details: non-lumbar region of the spinal cord; TgSOD1-Cromolyn vs TgSOD1-Vehicle; p=0.167
Protocol: Western blots were performed as previously described (Mueller et al., 2018). Briefly, […] of mouse spinal cord protein was re-suspended in sample buffer, boiled at 95° C. for 5 minutes, and fractioned on 10-20% Tricine gels (Life Technologies), and the membrane was then blocked with 5% milk in tris-buffered saline with Tween 20 (TBST) before immunodetection with antibodies specific for the following: GPR35 (Novus Biologicals, Littleton, Colo.; NBP2-24640), and beta-actin (Cell Signaling Technology, Danvers, Mass.; 4967S). Primary antibody incubation overnight was followed by 4 washes (15 min, RT) in TBST before incubation with the secondary antibody for 1 h (HRP-conjugated goat anti-rabbit IgG Jackson ImmunoResearch Laboratories, West Grove, Pa.; and HRP-conjugated goat anti-mouse Bio-Rad Laboratories Hercules, Calif.). After 4 washes in TBST (15 min, RT) proteins were visualized using the ECL detection system (NEN, Boston, Mass.). GPR35 integrated density values (IDV) were normalized to beta-actin.
as §1

[5] = tested on: pro-inflammatory cytokines and chemokines in spinal cord; experiment: Meso Scale Discovery multi-spot cytokine assay, spinal cord; type: in vivo, mice; details: TgSOD1-Cromolyn vs TgSOD1-Vehicle; p=0.0273
Protocol: Spinal cord frozen tissue was homogenized in ice-cold RIPA buffer (Thermo Fisher Scientific, #8990) supplemented with protease inhibitor cocktail (Thermo Fisher Scientific, #78430). Samples were centrifuged at 45,000 g for 30 minutes at 4° C. using an Optima TL ultracentrifuge and a TLA 120.2 rotor (Beckman Coulter). Expression levels of 10 pro-inflammatory cytokines and chemokines were assessed in the supernatants derived from spinal cord tissue or in the plasma, using an electrochemiluminescence-based multi-array method and MESO Quickplex SQ 120 system (MSD, Rockville, Md., USA). The 96-well V-PLEX Proinflammatory Mouse 1 Kit (Meso Scale Discovery, #K15048D) was used to measure simultaneously IFN-γ, IL-1β, IL-2, IL-4, IL-5, IL-6, CXCL1/KC/GRO, IL-10, IL-12, p70, and TNFα, following the manufacturer's instructions. Briefly, samples were diluted in the calibrator and added to the plate coated with an array of cytokine capture antibodies. […] The plate was washed with the wash buffer and the 2× Read Buffer T was added. The signal was immediately measured on a MESO QuickPlex SQ 120 instrument and was analyzed using the DISCOVERY WORKBENCH 4.0 software (Meso Scale Diagnostics, LLC., Rockville, Md., USA). Protein concentrations in the supernatants or the plasma samples were measured using the Pierce BCA protein assay kit (Thermo Scientific). […]

O=C(O)c1cc(=O)c2c(OCC(O)COc3cccc4oc(C(=O)O)cc(=O)c34)cccc2o1 [cromolyn, cromolyn sodium]
motor neuron survival (lumbar spinal cord motor neuron counts) [1]: significantly increased
binding to beta-amyloid peptides and polymerization (beta-amyloid peptides): inhibiting their polymerization to higher order aggregates
neuronal GPR35 levels (co-localized with NeuN) (GPR35 [2]; p=0.0411): significant increase in neuronal GPR35 levels
GPR35 levels (immunofluorescence intensity) (GPR35 [2]; p=0.0449): significant increase in GPR35 levels
body weight ([3]; 6.3 mg/kg i.p. once daily 5 days per week from P60, overall): did not impact body weight
body weight ([3]; 6.3 mg/kg i.p., all mice, at P130): significant improvement in body weight
GPR35 levels (western blot, normalized to beta-actin) (GPR35 [4]): trend towards an increase
CXCL1 levels in spinal cord [5]: significant decrease
TNFα levels in spinal cord [5]: significant decrease
